According to ChEMBL document CHEMBL4507276 (2021):

Tests used:
[1] = biological target: Death-associated protein kinase 3 (Homo sapiens) (UniProt O43293); settings: Compound concentration 1000.0 nM
[2] = biological target: Protein kinase C theta type (Homo sapiens) (UniProt Q04759); settings: Compound concentration 1000.0 nM
[3] = biological target: Glutamate receptor ionotropic, AMPA (Rattus norvegicus) (UniProt P19491+P19492+P19493+P19490); assay: AMPA/R Cerep selectivity data (BI); format: protein-complex assay; settings: Compound concentration 20.0 uM
[4] = biological target: Guanylate cyclase soluble subunit alpha-1 (Bos taurus) (UniProt P19687); assay: GUACYCBASAL Cerep selectivity data (BI); settings: Homo sapiens; Compound concentration 20.0 uM
Sequence of Guanylate cyclase soluble subunit alpha-1 (Bos taurus) (P19687 whole entry): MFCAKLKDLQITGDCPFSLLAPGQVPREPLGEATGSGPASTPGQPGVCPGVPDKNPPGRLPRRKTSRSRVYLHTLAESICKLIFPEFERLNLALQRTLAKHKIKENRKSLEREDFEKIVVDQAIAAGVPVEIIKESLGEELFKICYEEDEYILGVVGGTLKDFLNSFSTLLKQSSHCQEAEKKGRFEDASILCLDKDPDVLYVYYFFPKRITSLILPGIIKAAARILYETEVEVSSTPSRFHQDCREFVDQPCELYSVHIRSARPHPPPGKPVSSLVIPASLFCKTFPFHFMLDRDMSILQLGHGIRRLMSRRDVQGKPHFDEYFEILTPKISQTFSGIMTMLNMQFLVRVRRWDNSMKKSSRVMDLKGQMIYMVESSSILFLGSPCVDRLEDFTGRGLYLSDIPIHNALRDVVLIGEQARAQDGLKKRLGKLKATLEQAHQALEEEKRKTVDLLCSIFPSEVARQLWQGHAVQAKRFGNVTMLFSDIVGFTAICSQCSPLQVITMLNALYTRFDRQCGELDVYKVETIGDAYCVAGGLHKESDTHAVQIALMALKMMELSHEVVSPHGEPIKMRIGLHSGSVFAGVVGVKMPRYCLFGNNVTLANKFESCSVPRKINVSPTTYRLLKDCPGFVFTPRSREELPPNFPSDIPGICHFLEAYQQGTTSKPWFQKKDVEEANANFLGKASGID

[5] = biological target: Cannabinoid receptor 1 (Homo sapiens) (UniProt P21554); assay: CB1 Eurofins-Panlabs selectivity data (BI); settings: Compound concentration 10.0 uM
Sequence of Cannabinoid receptor 1 (Homo sapiens) (P21554 whole entry): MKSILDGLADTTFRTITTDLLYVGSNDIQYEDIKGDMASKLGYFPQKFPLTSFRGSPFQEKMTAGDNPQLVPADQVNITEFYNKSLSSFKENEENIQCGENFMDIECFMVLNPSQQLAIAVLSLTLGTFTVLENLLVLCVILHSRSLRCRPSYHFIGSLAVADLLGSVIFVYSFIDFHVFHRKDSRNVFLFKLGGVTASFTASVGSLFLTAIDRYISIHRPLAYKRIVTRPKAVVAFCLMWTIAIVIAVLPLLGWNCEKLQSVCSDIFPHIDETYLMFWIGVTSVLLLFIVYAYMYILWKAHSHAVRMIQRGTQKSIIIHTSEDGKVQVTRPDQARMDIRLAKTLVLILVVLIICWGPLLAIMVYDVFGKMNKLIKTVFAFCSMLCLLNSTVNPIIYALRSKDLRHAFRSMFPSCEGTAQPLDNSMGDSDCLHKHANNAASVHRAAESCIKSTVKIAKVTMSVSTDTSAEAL

[6] = biological target: P2Y purinoceptor 1 (Rattus norvegicus) (UniProt P49651); assay: P2Y/RAT Eurofins-Panlabs selectivity data (BI); settings: Compound concentration 10.0 uM
Sequence of P2Y purinoceptor 1 (Rattus norvegicus) (P49651 whole entry): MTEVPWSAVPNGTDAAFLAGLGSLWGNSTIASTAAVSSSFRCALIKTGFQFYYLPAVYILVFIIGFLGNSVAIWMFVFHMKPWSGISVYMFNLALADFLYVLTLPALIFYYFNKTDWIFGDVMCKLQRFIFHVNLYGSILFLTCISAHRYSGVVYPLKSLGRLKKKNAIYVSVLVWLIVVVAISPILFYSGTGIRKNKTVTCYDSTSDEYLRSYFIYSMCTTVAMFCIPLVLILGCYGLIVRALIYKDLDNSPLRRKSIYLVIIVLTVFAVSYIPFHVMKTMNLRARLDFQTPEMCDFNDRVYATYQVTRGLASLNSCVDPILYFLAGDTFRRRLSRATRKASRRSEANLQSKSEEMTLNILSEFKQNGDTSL

[7] = biological target: Tyrosine-protein kinase receptor UFO (Homo sapiens) (UniProt P30530); assay: AXL Invitrogen selectivity data (BI); settings: Compound concentration 3.0 uM
Sequence of Tyrosine-protein kinase receptor UFO (Homo sapiens) (P30530 whole entry): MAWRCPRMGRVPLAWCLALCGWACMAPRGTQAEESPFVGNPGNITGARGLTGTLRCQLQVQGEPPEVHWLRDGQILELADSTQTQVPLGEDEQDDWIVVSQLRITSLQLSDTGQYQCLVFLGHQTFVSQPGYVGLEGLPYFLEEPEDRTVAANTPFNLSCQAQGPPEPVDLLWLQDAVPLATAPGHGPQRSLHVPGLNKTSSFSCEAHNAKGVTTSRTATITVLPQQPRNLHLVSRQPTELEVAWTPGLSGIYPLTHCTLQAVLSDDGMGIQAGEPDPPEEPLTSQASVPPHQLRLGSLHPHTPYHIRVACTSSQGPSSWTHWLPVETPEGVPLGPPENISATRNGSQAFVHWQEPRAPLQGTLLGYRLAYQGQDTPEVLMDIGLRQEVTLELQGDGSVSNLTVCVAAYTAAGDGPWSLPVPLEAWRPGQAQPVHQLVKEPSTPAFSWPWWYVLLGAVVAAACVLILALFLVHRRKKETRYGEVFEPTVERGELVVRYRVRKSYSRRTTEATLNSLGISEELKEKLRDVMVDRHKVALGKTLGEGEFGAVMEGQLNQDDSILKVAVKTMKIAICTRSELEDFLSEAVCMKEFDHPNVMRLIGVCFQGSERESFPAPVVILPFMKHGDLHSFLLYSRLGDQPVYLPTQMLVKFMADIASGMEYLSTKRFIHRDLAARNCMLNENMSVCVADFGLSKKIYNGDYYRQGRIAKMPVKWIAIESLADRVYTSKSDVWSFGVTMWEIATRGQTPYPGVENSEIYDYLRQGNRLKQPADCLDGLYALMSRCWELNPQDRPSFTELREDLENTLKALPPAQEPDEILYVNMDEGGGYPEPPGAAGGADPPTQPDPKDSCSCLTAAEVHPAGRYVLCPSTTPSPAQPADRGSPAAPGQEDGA

[8] = biological target: T1, Ephrin type-A receptor 8 (Homo sapiens) (UniProt P29322); assay: EPHA8 Invitrogen selectivity data (BI); settings: Compound concentration 3.0 uM
T1 sequence (whole entry): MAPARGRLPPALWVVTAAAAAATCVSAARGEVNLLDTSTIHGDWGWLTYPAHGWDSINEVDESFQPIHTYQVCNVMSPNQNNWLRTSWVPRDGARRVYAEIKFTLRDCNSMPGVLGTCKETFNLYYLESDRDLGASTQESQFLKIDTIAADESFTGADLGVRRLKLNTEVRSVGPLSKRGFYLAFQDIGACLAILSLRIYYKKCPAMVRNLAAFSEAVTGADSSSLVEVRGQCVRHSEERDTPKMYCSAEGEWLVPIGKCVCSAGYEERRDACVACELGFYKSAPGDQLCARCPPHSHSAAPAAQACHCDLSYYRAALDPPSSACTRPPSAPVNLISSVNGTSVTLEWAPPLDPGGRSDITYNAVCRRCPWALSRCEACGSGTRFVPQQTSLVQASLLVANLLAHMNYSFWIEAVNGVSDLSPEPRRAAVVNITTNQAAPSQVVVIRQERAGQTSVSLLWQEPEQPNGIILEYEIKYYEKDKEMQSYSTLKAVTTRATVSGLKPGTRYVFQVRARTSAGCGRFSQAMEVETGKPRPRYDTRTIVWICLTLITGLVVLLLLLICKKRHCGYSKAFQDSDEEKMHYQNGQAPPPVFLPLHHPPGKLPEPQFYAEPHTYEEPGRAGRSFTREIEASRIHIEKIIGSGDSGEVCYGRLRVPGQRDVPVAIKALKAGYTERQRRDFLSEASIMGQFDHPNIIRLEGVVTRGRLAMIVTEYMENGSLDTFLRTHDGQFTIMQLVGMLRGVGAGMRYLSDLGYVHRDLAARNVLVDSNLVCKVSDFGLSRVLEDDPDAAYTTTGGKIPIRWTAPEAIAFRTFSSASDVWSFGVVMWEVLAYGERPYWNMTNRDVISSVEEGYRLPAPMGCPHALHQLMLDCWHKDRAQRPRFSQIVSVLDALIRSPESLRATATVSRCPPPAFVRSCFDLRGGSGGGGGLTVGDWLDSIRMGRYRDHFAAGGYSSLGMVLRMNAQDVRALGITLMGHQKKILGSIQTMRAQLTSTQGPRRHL

[9] = biological target: T2, Inhibitor of nuclear factor kappa-B kinase subunit epsilon (Homo sapiens) (UniProt Q14164); assay: IKBKE Invitrogen selectivity data (BI); settings: Compound concentration 3.0 uM
T2 sequence (whole entry): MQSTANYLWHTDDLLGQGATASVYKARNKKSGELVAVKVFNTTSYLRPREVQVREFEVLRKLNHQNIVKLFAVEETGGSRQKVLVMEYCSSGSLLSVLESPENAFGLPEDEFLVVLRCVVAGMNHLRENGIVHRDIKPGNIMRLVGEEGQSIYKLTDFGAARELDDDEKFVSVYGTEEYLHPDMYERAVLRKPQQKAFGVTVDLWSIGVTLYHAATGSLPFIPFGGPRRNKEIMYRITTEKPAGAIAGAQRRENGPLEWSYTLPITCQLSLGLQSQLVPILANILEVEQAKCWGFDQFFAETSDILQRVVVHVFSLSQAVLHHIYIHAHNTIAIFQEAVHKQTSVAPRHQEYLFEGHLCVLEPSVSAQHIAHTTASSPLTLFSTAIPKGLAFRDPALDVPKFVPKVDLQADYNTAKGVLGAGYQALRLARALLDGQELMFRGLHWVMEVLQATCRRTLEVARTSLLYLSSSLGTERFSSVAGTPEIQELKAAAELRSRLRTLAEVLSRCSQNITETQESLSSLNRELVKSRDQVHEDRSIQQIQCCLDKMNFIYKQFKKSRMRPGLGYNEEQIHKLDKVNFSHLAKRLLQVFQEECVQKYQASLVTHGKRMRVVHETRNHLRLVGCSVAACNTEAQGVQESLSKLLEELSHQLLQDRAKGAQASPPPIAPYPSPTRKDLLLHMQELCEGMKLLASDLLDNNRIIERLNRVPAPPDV

[10] = biological target: Ribosomal protein S6 kinase alpha-6 (Homo sapiens) (UniProt Q9UK32); assay: RPS6KA6 Invitrogen selectivity data (BI); settings: Compound concentration 3.0 uM
Sequence of Ribosomal protein S6 kinase alpha-6 (Homo sapiens) (Q9UK32 whole entry): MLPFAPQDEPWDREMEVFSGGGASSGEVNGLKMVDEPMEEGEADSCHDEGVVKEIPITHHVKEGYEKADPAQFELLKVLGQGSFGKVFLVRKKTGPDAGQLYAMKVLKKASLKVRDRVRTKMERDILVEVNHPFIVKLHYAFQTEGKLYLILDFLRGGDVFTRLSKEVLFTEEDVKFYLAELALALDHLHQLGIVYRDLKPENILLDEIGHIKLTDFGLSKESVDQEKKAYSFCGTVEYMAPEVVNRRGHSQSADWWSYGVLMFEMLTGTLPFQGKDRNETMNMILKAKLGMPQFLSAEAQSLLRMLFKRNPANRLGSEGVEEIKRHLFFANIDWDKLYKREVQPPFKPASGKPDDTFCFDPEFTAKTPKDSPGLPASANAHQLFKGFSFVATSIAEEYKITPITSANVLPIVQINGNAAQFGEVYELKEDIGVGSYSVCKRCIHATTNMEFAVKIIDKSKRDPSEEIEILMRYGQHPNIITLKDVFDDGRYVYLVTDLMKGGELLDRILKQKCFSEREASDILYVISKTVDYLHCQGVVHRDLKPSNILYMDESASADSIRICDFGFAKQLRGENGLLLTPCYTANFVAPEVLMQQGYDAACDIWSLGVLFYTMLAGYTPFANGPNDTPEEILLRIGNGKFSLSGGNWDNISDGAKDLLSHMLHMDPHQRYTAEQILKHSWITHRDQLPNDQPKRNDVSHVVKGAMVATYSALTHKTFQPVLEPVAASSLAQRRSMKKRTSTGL

[11] = biological target: Ribosomal protein S6 kinase beta-1 (Homo sapiens) (UniProt P23443); assay: RPS6KB1 Invitrogen selectivity data (BI); settings: Compound concentration 3.0 uM
Sequence of Ribosomal protein S6 kinase beta-1 (Homo sapiens) (P23443 whole entry, looked up): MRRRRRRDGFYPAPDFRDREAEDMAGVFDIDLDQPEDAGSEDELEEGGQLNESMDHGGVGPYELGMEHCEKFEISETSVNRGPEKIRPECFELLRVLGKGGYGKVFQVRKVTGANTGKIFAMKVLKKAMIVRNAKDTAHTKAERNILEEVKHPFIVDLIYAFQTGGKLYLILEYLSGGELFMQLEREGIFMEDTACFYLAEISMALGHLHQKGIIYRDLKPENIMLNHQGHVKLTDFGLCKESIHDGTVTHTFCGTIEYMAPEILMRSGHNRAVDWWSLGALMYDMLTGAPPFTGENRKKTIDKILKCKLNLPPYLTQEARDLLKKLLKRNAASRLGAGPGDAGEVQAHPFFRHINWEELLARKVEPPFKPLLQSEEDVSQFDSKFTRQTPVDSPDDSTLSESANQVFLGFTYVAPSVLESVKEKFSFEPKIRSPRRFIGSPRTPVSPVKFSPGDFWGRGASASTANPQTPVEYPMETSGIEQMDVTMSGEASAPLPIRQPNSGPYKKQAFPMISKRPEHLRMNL

Measured: residual activity

Sequence of Protein kinase C theta type (Homo sapiens) (Q04759 whole entry, looked up): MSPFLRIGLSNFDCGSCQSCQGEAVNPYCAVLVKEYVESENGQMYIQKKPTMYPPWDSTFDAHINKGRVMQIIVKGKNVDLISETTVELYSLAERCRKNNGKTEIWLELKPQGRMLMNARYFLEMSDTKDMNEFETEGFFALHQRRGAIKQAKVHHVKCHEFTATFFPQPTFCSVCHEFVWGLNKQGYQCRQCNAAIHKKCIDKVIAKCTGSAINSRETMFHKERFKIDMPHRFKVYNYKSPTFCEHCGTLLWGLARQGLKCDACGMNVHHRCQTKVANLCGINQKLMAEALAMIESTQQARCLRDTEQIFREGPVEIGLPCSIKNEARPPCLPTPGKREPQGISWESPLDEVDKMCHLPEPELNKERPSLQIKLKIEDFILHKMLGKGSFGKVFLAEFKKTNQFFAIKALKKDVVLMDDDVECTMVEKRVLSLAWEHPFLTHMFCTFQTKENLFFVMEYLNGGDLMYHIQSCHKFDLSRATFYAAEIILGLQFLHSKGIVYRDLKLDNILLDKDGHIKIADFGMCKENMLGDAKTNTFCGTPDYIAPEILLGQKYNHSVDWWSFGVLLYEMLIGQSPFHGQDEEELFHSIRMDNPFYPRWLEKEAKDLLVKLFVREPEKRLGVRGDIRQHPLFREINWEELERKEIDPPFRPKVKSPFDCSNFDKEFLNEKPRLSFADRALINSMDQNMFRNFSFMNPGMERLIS
Sequence of Death-associated protein kinase 3 (Homo sapiens) (O43293 whole entry, looked up): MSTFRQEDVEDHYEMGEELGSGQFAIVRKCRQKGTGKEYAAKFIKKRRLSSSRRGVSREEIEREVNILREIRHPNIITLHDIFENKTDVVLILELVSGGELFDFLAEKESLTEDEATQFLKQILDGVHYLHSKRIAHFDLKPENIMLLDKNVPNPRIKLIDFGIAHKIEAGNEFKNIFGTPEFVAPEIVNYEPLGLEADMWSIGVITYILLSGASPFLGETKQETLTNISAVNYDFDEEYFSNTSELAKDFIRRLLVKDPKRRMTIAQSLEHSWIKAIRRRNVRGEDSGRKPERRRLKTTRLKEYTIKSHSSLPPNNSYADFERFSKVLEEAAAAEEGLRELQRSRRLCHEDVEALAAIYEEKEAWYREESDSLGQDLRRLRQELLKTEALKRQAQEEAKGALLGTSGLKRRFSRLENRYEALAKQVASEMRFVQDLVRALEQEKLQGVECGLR

CN(C)C(=O)Cn1cc(-c2nc(C3(c4ccc(-c5cnc(N)nc5)cc4)CC3)no2)cn1 [BI 0153]
inactive: [1] 92% | [2] 89%

CN(C)C(=O)Cn1cc(-c2nc([C@@](C)(c3ccc(-c4cnc(N)nc4)cc3)C3CC3)no2)cn1 [BI 665915]
inactive: [3] 105% | [4] 95% | [5] 91% | [6] 95% | [7] 95.5% | [8] 98.5% | [9] 99.5% | [10] 105% | [11] 97.5%
